Series [1] in a line: Plasma protein binding (PPB), equilibrium dialysis, rat plasma. Type of series: in vitro ADME. Conditions: 5 h at 37° C., read-out: Plasma protein binding (Bound %) Rat (converted). As to the method: (§1) The experiment is intended to determine plasma protein binding (PPB) data of the test compounds disclosed herein.
(§2) In the PPB experiment, the final administration matrix contained the test compound or a reference compound with a concentration of 1 μM and DMSO with a content of 0.2%.
(§3) Collecting samples in initial time: 25 μL of the matrix containing the compound was added into a blank 96-well collecting plate, and the plate was stored at −20° C.
(§4) An equilibrated dialysis device was prepared. 100 μL of buffer was added to the receiving side of the equilibrium dialysis plate. Then 100 μL of the administration matrix containing the compound or the reference compound was added into an administration side of the equilibrium dialysis plate. The prepared equilibrium dialysis plate was placed in a 37° C. shaker to be shaken for 5 h at 60 rpm.
(§5) Sample was prepared at the end of cultivation (5 h): Preparing sample in the receiving side: 25 μL of sample from a receiving side was taken out and placed in a 96-well sample collecting plate, and 25 μL of a corresponding matrix (blank plasma) was added for mixing: 200 μL of ACN containing an internal standard was added, shaken for 10 minutes at 600 rpm, and centrifuged at 5594 g for 15 min.
(§6) Preparing sample in the administration side: 25 μL of the sample containing test compound and reference compound from the administration side was taken out and 25 μL of a blank buffer was added for mixing; 200 μL of ACN containing an internal standard was added, shaken for 10 minutes at 600 rpm, and centrifuged at 5594 g for 15 min.
(§7) Preparing sample in initial time: the sample containing test compound and reference compound was re-melted at 37° C. in initial time and then mixed with the corresponding matrix (blank buffer) in the same volume (25 μL); 200 μL of ACN containing an internal standard was added, shaken for 10 minutes at 600 rpm, and centrifuged at 5594 g for 15 min.
(§8) After all the samples were centrifuged, 50 μL of a supernatant was taken and added into 50 μL of ultrapure water for mixing, and the samples were sent to liquid chromatography-mass spectrometry.
A general note: In equilibrium dialysis only unbound substance equilibrates across the membrane.

A short description of series [2]: Plasma protein binding (PPB), equilibrium dialysis, mouse plasma. Conditions: 5 h at 37° C., read-out: Plasma protein binding (Bound %) Mouse (converted). Type of series: in vitro ADME. As to the method:
as §1, §2, §3, §4, §5, §6, §7, §8

For the next series, the target named is T1, CYP2D6 (Homo sapiens, UniProt P10635).
T1 construct: co-incubated at 7 concentrations with human liver microsomes and five probe substrates; tissue Corning (USA); host or cells: mixed (pooled) human liver microsomes
T1 sequence (P10635 whole entry): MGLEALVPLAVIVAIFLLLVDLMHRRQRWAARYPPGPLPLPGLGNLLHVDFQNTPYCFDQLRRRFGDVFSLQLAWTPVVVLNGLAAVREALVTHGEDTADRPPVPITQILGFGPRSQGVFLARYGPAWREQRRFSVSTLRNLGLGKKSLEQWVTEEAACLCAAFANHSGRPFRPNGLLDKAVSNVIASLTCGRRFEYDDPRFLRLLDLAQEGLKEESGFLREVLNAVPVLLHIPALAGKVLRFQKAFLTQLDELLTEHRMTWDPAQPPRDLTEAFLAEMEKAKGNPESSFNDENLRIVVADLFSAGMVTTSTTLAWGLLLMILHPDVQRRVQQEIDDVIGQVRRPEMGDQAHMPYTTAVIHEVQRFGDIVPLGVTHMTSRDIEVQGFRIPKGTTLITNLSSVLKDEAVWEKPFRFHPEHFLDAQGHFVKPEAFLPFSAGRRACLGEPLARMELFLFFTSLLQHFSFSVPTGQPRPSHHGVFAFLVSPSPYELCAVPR
The experiment in a line: CYP450 inhibition in human liver microsomes, CYP2D6. Conditions: human, microsomes. Type of series: in vitro ADME. As to the method:
(§9) This study was intended to investigate the inhibitory effect of the test compounds on 5 major enzymes in human P450 superfamily, CYP1A2, 2C9, 2C19, 2D6 and 3A4-M. The mixed human liver microsomes used in this assay were purchased from Corning (USA). The test compound (compound 14) was co-incubated at 7 concentrations with human liver microsomes and five probe substrates (phenacetin for CYP1a2, diclofenac for CYP2C9, mephenytoin for CYP2C19, dextromethorphan for CYP2D6, midazolam for CYP3A4-M, mixed). The reaction was initiated by adding coenzyme NADPH, and terminated by adding acetonitrile containing internal standard. After the proteins were precipitated, the supernatant was centrifuged. The characteristic metabolites in the supernatant (acetaminophen for CYP1A2, 4-hydroxydiclofenac for CYP2C9, 4-hydroxymephenytoin for CYP2C19, dextrorphan for CYP2D6, 1-hydroxymidazolam for CYP3A4-M) were analyzed by LC-MS/MS. The influence of the test compounds on production of the characteristic metabolites was finally analyzed on the basis of the data obtained. A selective inhibitor (ketoconazole for CYP3A4-M) may be used as positive control. All samples were tested in duplicate.

The nature of series [3]: Plasma protein binding (PPB), equilibrium dialysis, human plasma. Conditions: 5 h at 37° C., read-out: Plasma protein binding (Bound %) Human (converted). It is filed as in vitro ADME. As to the method:
as §1, §2, §3, §4, §5, §6, §7, §8

A further series concerns the target T2, CYP3A4 (Homo sapiens, UniProt P08684).
T2 construct: The test compounds were co-incubated with the human liver microsomes and a probe substrate midazolam (CYP3A4); tissue Corning (USA); host or cells: mixed (pooled) human liver microsomes
Briefly: CYP450 inhibition in human liver microsomes, CYP3A4-M. Type of series: in vitro ADME. Conditions: human, microsomes. As to the method:
as §9
For orientation: Liver microsomes are a subcellular fraction often used to study metabolism.

A further series concerns TNF-α release. The experiment in a line: Inhibition of cytokine TNF-α release in LPS-induced Balb/c female mice. It is filed as in vivo. Conditions: oral gavage 16 h before LPS (i.p. 0.2 mg/kg); serum 1.5 h after stimulation. The protocol: Female Balb/c mice were randomized into groups, each containing 4 mice, including a control+vehicle group, a model+vehicle group, a model+reference group and model+compound groups. The control animals received an intraperitoneal injection of normal saline (10 mL/kg) and the model animals received LPS stimulation (Sigma CAT #L2630, i.p., 10 mL/kg, 0.2 mg/kg). To the test compounds, DMSO, Solutol and 10 mM PBS were sequentially added to prepare a solution or suspension of required concentration for administration. For the vehicle, DMSO, Solutol and 10 mM PBS were mixed in a volume ratio of 5:15:80. The animals were administered through oral gavage (10 mL/kg) 16 h before LPS (or saline) stimulation at predetermined doses, and euthanized with CO2 at 1.5 h after the stimulation for cardiac blood collection. The whole blood was not anticoagulated, incubated in wet ice for 1.5 h, and centrifuged at 2000×g at 4° C. for 10 min to separate the serum. Serum was frozen at −80° C. for TNF-α assay. Quantification of TNF-α was done by TNF-α ELISA kit according to the manufacturer's instructions. The readings of absorbance at A450 were measured with a microplate reader SpectraMax i3x (Molecular Device) for calculating the inhibition of the compounds, and IC50 was calculated with GraphPad Prism 7.0 software. […] In particular, some exemplary compound inhibition rate values are as follows: […]

The nature of series [4]: Pharmacokinetic study, single oral gavage dosing. Conditions: mouse, 40 mg/kg, 40 mpk, 15% solutol HS15 + 85% PBS, ICR mice, plasma. It is filed as in vivo.
Another series deals with T3, human IRAK4 (Homo sapiens, UniProt Q9NWZ3).
T3 construct: purchased Cama (so in the source)
T3 sequence (Q9NWZ3 1-460): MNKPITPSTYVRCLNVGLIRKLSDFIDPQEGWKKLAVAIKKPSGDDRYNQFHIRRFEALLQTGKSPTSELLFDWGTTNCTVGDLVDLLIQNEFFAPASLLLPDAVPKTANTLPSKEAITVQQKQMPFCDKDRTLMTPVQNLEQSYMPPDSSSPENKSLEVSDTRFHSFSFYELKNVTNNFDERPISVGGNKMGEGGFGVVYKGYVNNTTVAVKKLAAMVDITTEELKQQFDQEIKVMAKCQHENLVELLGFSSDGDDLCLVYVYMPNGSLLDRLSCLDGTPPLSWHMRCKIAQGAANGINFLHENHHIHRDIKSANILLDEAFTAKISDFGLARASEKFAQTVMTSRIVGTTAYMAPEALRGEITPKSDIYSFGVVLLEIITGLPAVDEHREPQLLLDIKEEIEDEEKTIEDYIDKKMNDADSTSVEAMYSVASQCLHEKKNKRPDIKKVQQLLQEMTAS
Briefly: IRAK4 MSA (Mobility-Shift Assay) at Km concentration of ATP. Type of series: biochemical. Conditions: GST-IRAK4 1 nM, ATP 37 μM (Km); read-out: IC50 for inhibiting human IRAK4 activity. As to the method: A recombinant fusion protein of N-terminal GST (glutathione-S-transferase) and human IRAK4 was used as enzyme (GST-IRAK4, kinase IRAK4 (Cama, CAT No. 09-145)) at a final concentration of 1 nM; ATP (Sigma. CAT No. A7699-1G) was at a final concentration of 37 μM; • the substrates used for the kinase reaction were 5-FAM (5-carboxyfluorescein)-labeled polypeptide (5-FAM-[…]-COOH) and substrate peptide FAM-P8 (GL Biochem, CAT No. 112396) at final concentrations of 5 μM.
In this assay, 500 μM stock solutions of the compounds were prepared in 100% DMSO, and serially 4-fold diluted to the 10th concentration gradient with 100% DMSO, followed by a 10-fold dilution in the compound buffer (50 mM HEPES, pH 7.5, 0.00015% Brij-35) to give intermediate dilutions of the compounds at a final concentration of 10 μM−0.04 nM containing 10% DMSO. 5 μL of the intermediate dilution was transferred into a black 384-well plate.
IRAK4 was diluted to 2.5 nM in the kinase buffer (50 mM HEPES, pH 7.5, 0.00015% Brij-35, 2 mM DTT). 10 μL of the IRAK4 dilution was transferred to the 384-well plate and co-incubated with the compound for 10-15 min.
The substrate and ATP were diluted to 12.5 μM and 92.5 μM with reaction buffer (50 mM HEPES, pH 7.5, 0.00015% Brij-35, 10 mM MgCl2), respectively. 10 μL of the dilution was transferred to a 384-well plate and incubated at 28° C. for 1 h. The reaction was terminated by adding 25 μL of 50 mM EDTA to the 384-well plate.
The inhibition rate of IRAK4 by the compounds was calculated by measuring the rate of phosphorylated substrate using a Caliper EZ Reader (PerkinElmer) and the IC50 was calculated by XL-fit software. […] In particular, some exemplary compound activity values are as follows: […]

T2 sequence (P08684 whole entry): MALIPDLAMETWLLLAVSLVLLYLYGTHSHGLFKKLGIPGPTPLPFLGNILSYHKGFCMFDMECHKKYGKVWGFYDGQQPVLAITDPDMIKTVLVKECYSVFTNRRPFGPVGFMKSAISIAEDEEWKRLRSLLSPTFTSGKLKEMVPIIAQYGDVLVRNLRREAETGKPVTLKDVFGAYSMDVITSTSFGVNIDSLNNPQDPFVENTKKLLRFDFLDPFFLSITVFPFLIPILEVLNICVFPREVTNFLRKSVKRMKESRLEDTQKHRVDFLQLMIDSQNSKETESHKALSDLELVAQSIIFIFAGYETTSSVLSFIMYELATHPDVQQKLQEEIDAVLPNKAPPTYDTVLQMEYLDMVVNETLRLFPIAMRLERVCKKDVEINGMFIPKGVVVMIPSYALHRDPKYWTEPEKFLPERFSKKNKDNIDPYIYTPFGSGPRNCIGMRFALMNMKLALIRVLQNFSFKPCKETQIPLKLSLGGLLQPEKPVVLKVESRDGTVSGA

As usually defined, the IC50 is the concentration at which inhibition is half-maximal. As to `CC(C)(O)CCn1cc2cc(NC(=O)c3cccc(C(F)(F)F)n3)c(C(C)(C)O)cc2n1` [A, reference compound], the fraction unbound at 5 h, 1 μM in series [1] was 0.13; in series [2], 0.148; in series [3], 0.0098. Further, the 50% inhibitory concentration (IC50) on CYP2D6 and at CYP3A4 was > 30000 nM each time.

One may read the MRT as a mean duration of stay, worked out from the concentration-time curve. By Tmax is commonly meant the time at which the peak concentration occurs. As for `COc1cc2nn([C@H]3CC[C@H](O)CC3)cc2cc1NC(=O)c1cccc(C)[n+]1[O-]` [Compound 013, 2-((2-((1r,4r)-4-hydroxycyclohexyl)-6-methoxy-2H-indazol-5-yl)carbamoyl)-6-methylpyridine 1-oxide], the fraction unbound at 5 h, 1 μM is 0.183 in series [1], 0.238 in series [2] and 0.191 in series [3]. For the same compound, the “Inhibition rate (%) of TNF-α” value with TNF-α release is 76.29%. Also, in series [4] (read-out: Area under curve AUC0-t), the AUC(0-t) was 160 µg·h/mL. The AUC(0-inf) in series [4] (read-out: Area under curve AUC0-∞) stood at 182 µg·h/mL. In addition, the MRT in series [4] (read-out: Average retention time MRT) was 10.4 h. Further, the half-life in series [4] (read-out: Half life t1/2 (converted)) was 7.23 h. Further, the Cmax in series [4] (read-out: Peak concentration Cmax) is 18900 ng/mL. In addition, the Tmax in series [4] (read-out: Time to peak tmax) was determined as 1 h. Further, on human IRAK4, the IC50 amounted to 7.6 nM.

As to `CCOc1cc2nn([C@H]3CC[C@H](O)CC3)cc2cc1NC(=O)c1cccc(C)[n+]1[O-]` [Compound 016, 2-((6-ethoxy-2-((1r,4r)-4-hydroxycyclohexyl)-2H-indazol-5-yl)carbamoyl)-6-methylpyridine 1-oxide], the fraction unbound at 5 h, 1 μM in series [1] is 0.099; in series [2], 0.123; in series [3], 0.131. Further, the “Inhibition rate (%) of TNF-α” value with TNF-α release is 78.71%. Besides, the IC50 at human IRAK4 was 8.1 nM.

For `Cc1cccc(C(=O)Nc2cc3cn([C@H]4CC[C@@](C)(O)CC4)nc3cc2N(C)C)[n+]1[O-]` [Compound 287, 2-((6-(dimethylamino)-2-((1s,4s)-4-hydroxy-4-methylcyclohexyl)-2H-indazol-5-yl)carbamoyl)-6-methylpyridine 1-oxide], the IC50 on human IRAK4 stood at 13 nM.

With `COc1cc2nn([C@H]3CC[C@@H](O)CC3)cc2cc1NC(=O)c1cccc(C(C)C)[n+]1[O-]` [Compound 288, 2-((2-((1s,4s)-4-hydroxycyclohexyl)-6-methoxy-2H-indazol-5-yl)carbamoyl)-6-isopropylpyridine 1-oxide], on human IRAK4, the IC50 turned out to be 13 nM.

As for `COc1cc2nn([C@H]3CC[C@](C)(O)CC3)cc2cc1NC(=O)c1cccc(NC2CC2)[n+]1[O-]` [Compound 289, 2-(cyclopropylamino)-6-((2-((1r,4r)-4-hydroxy-4-methylcyclohexyl)-6-methoxy-2H-indazol-5-yl)carbamoyl)pyridine 1-oxide], the IC50 on human IRAK4 was determined as 1.7 nM.

As to `COc1cc2nn([C@H]3CC[C@](C)(C#N)CC3)cc2cc1NC(=O)c1cccc(C)[n+]1[O-]` [Compound 291, 2-((2-((1r,4r)-4-cyano-4-methylcyclohexyl)-6-methoxy-2H-indazol-5-yl)carbamoyl)-6-methylpyridine 1-oxide], at human IRAK4, the IC50 is 14 nM.

As to `Cc1cccc(C(=O)Nc2cc3cn([C@H]4CC[C@@H](O)CC4)nc3cc2OCC2CC2)[n+]1[O-]` [Compound 292, 2-((6-(cyclopropylmethoxy)-2-((1s,4s)-4-hydroxycyclohexyl)-2H-indazol-5-yl)carbamoyl)-6-methylpyridine 1-oxide], on human IRAK4, the IC50 is 14 nM.

With `COc1cc2nn([C@H]3CC[C@](C)(O)CC3)cc2cc1NC(=O)c1cccc(C)n1` [Compound B, N-(2-((1r,4r)-4-hydroxy-4-methylcyclohexyl)-6-methoxy-2H-indazol-5-yl)-6-methylpicolinamide, reference compound], the IC50 on human IRAK4 amounted to 30 nM.

The values are drawn from patent US12617770B2, “IRAK inhibitor and preparation method therefor and use thereof” (WUHAN CREATERNA SCIENCE AND TECHNOLOGY CO., LTD., priority 2019, dated 2026).
